Laboratory results reported in patent US11999727B2 (Tango Therapeutics, Inc., priority 2020, dated 2024).

What was measured:
[1] = system: HAP1 MTAP-deleted cell line; experiment: Viability assay, MTAP-deleted cell line; format: cell-based; details: Homo sapiens, read-out: HAP1 MTAP deleted viability
From the text: Table 1 additionally indicates IC50 values in a viability assay for the MTAP-deleted cell line (column 10), indicating the effect of treatment with compound on cell survival.

PRMT5 [2] = biological target: T1, PRMT5 (Homo sapiens, UniProt O14744); experiment: PRMT5 biochemical IC50 assay with no cofactor; details: PRMT5, no cofactor; read-out: No Cofactor/rel IC50
T1 construct: purchased Viva (custom protein)
From the text: Table 1 indicates IC50 values (μM) against PRMT5 for exemplary compounds in the presence of SAM as cofactor, with no cofactor, and with MTA as cofactor, respectively (columns 4-6). […] Ki values can be calculated from the IC50 values as described in the Examples section. As detailed in the Examples section, for the assay performed in the presence of SAM, IC50=Ki×1.5 (Ki=IC50/1.5).

[3] = system: HAP1 MTAP-deleted cell line; experiment: SDMA in-cell western assay, HAP1 MTAP-deleted; format: cell-based; details: for IC50: Homo sapiens, HAP1, SDMA in-cell western, HAP1 MTAP-deleted; for MTAP intact/deleted ratio: IC50 ratio HAP1 MTAP-intact / HAP1 MTAP-deleted, SDMA in-cell western
Method in brief: (§1)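 Readout: in-cell western detection of SDMA. Cells: HAP1 expressing endogenous MTAP and an MTAP-null HAP1 counterpart. Output: IC50.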

PRMT5 [4] = biological target: T1, PRMT5; experiment: PRMT5 biochemical IC50 assay with SAM as cofactor; details: PRMT5, SAM as cofactor; read-out: SAM IC50
PRMT5 [5] = biological target: T1, PRMT5; experiment: PRMT5 biochemical IC50 assay with MTA as cofactor; details: PRMT5, MTA as cofactor; read-out: MTA IC50
[6] = system: HAP1 MTAP-intact cell line; experiment: SDMA in-cell western assay, HAP1 MTAP-intact; format: cell-based; details: Homo sapiens, HAP1, SDMA in-cell western, HAP1 MTAP-intact; read-out: MTAP HAP1 intact IC50
Method in brief: as §1

[7] = HAP1, viability assay, MTAP-deleted cell line
[8] = read-out: HAP1 MTAP deleted IC50
[9] = HAP1, viability IC50, MTAP-deleted cell line
[10] = read-out: HAP 1 MTAP deleted IC50

T1 sequence (O14744 whole entry): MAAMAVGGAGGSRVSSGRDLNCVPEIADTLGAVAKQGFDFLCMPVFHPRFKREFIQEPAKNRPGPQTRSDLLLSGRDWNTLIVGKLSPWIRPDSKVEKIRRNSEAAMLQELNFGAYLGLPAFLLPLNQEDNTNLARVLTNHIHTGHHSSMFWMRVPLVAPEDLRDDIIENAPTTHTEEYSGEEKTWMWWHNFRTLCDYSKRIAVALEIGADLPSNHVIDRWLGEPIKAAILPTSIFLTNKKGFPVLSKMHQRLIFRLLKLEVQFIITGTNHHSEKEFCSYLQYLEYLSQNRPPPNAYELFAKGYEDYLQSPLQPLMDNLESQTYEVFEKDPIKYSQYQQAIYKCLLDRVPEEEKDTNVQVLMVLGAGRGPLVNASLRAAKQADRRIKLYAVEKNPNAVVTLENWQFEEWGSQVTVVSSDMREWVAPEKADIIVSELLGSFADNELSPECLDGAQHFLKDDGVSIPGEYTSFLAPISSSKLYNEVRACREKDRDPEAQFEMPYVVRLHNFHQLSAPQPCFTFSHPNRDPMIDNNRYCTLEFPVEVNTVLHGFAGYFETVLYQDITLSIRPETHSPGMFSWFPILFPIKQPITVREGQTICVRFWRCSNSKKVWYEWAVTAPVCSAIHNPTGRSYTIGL
T1 sequence (Q9BQA1 whole entry partner): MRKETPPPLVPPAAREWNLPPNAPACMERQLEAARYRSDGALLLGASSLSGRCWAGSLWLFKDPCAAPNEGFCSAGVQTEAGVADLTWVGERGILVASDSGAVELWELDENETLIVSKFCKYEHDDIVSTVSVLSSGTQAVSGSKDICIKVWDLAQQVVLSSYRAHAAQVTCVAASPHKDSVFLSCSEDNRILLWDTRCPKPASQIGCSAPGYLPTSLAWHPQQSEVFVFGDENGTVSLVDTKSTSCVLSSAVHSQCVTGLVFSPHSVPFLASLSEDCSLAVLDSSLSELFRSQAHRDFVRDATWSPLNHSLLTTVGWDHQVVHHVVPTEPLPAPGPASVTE

IC50 (PRMT5 [2]) [nM]	IC50 [3, 8] [nM]	IC50 (PRMT5 [4]) [nM]	IC50 (PRMT5 [5]) [nM]	IC50 [6] [nM]	IC50 [3, 10] [nM]	SMILES	IC50 [1, 7] [nM]	MTAP intact/deleted ratio [3]	IC50 [1, 9] [nM]
50 to 500	100 to 1000	50 to 500	50 to 500	> 1000	–	Cc1n[nH]c2ccc([C@@H]3CC[C@@H](C)CN3C(=O)C(=O)Nc3cncc(C(N)=O)c3)cc12 (racemic) [Compound 500, rac-5-[[2-[(2S,5R)-5-Methyl-2-(3-methyl-1H-indazol-5-yl)-1-piperidyl]-2-oxo-acetyl]amino]pyridine-3-carboxamide]	1000 to 10000	A (an IC50 ratio greater than or equal to 10 fold)	–
> 500	> 1000	> 500	50 to 500	> 1000	–	COc1ncc(NC(=O)C(=O)N2C[C@@H](C)CC[C@@H]2c2csc3ccccc23)cc1C(N)=O (racemic) [Compound 501, 5-[[2-[2-(benzothiophen-3-yl)-5-methyl-1-piperidyl]-2-oxo-acetyl]amino]-2-methoxy-pyridine-3-carboxamide]	> 10000	B (an IC50 ratio greater than or equal to 3 fold but lower than 10 fold)	–
> 500	> 1000	50 to 500	50 to 500	> 1000	–	C[C@@H]1CCC[C@H]2CN(C(=O)C(=O)Nc3cncc(C(N)=O)c3)CC[C@H]21 (racemic) [Compound 515, 5-(2-(5-methyloctahydroisoquinolin-2(1H)-yl)-2-oxoacetamido)nicotinamide]	> 10000	B (an IC50 ratio greater than or equal to 3 fold but lower than 10 fold)	–
> 500	> 1000	> 500	50 to 500	> 1000	–	C[C@@H]1CC[C@@H]([C@@H]2CCC(O)C2)N(C(=O)C(=O)Nc2cncc(C(N)=O)c2)C1 (mixture of isomers) [Compound 517, 5-[[2-[(2S,5R)-2-(3-Hydroxycyclopentyl)-5-methyl-1-piperidyl]-2-oxo-acetyl]amino]pyridine-3-carboxamide]	> 10000	C (an IC50 ratio of less than 3 fold)	–
> 500	> 1000	> 500	50 to 500	> 1000	–	C[C@@H]1CC[C@@](C)(c2ccccc2)N(C(=O)C(=O)Nc2cncc(C(N)=O)c2)C1 (racemic) [Compound 521, 5-(2-(2,5-dimethyl-2-phenylpiperidin-1-yl)-2-oxoacetamido)nicotinamide]	> 10000	B (an IC50 ratio greater than or equal to 3 fold but lower than 10 fold)	–
50 to 500	100 to 1000	50 to 500	50 to 500	> 1000	–	C[C@@H]1CC[C@@H](c2ccc(-c3ccn[nH]3)cc2)N(C(=O)C(=O)Nc2cncc(C(N)=O)c2)C1 (racemic) [Compound 524, 5-[[2-[(2S,5R)-5-methyl-2-[4-(1H-pyrazol-5-yl)phenyl]-1-piperidyl]-2-oxo-acetyl]amino]pyridine-3-carboxamide]	1000 to 10000	A (an IC50 ratio greater than or equal to 10 fold)	–
50 to 500	< 100	> 500	50 to 500	100 to 1000	–	Cc1cc(NC(=O)C(=O)N2C[C@H](C)CC[C@H]2c2ccc(-c3cn[nH]c3)cc2)cnc1N (racemic) [Compound 525, rac N-(6-amino-5-methyl-3-pyridyl)-2-[(2S,5R)-5-methyl-2-[4-(1H-pyrazol-4-yl)phenyl]-1-piperidyl]-2-oxo-acetamide]	< 1000	A (an IC50 ratio greater than or equal to 10 fold)	–
50 to 500	< 100	50 to 500	50 to 500	100 to 1000	–	Cc1cc(NC(=O)C(=O)N2C[C@H](C)CC[C@H]2c2ccc(-c3ccn[nH]3)cc2)cnc1N (racemic) [Compound 526, rac N-(6-amino-5-methyl-3-pyridyl)-2-[(2S,5R)-5-methyl-2-[4-(1H-pyrazol-5-yl)phenyl]-1-piperidyl]-2-oxo-acetamide]	< 1000	A (an IC50 ratio greater than or equal to 10 fold)	–
> 500	–	50 to 500	50 to 500	> 1000	100 to 1000	C[C@@H]1CCC[C@@H]2CN(C(=O)C(=O)Nc3cncc(C(N)=O)c3)CC[C@@H]21 (racemic) [Compound 536, 5-(2-(5-methyloctahydroisoquinolin-2(1H)-yl)-2-oxoacetamido)nicotinamide]	–	A (an IC50 ratio greater than or equal to 10 fold)	> 10000
50 to 500	–	50 to 500	< 50	> 1000	< 100	C[C@@H]1CC[C@@H](c2ccc(F)c(O)c2)N(C(=O)C(=O)Nc2cncc(C(N)=O)c2)C1 (racemic) [Compound 540, 5-[[2-[(2R,5S)-2-(4-fluoro-3-hydroxy-phenyl)-5-methyl-1-piperidyl]-2-oxo-acetyl]amino]pyridine-3-carboxamide]	–	A (an IC50 ratio greater than or equal to 10 fold)	< 1000
> 500	–	50 to 500	50 to 500	> 1000	100 to 1000	C[C@@H]1CN(C(=O)C(=O)Nc2cncc(C(N)=O)c2)C[C@@H]2CCCC[C@@H]21 (racemic) [Compound 541, 5-[[2-[(4S,4aR,8aR)-4-Methyl-3,4,4a,5,6,7,8,8a-octahydro-1H-isoquinolin-2-yl]-2-oxo-acetyl]amino]pyridine-3-carboxamide]	–	A (an IC50 ratio greater than or equal to 10 fold)	1000 to 10000
> 500	–	50 to 500	50 to 500	> 1000	> 1000	C[C@@H]1CN(C(=O)C(=O)Nc2cncc(C(N)=O)c2)C[C@H]2CCCC[C@H]21 (racemic) [Compound 542, 5-[[2-[(4S,4aS,8aS)-4-Methyl-3,4,4a,5,6,7,8,8a-octahydro-1H-isoquinolin-2-yl]-2-oxo-acetyl]amino]pyridine-3-carboxamide]	–	B (an IC50 ratio greater than or equal to 3 fold but lower than 10 fold)	> 10000
50 to 500	–	50 to 500	50 to 500	> 1000	100 to 1000	C[C@@H]1CN(C(=O)C(=O)Nc2cncc(C(N)=O)c2)C[C@H]2CCCC[C@@H]21 (racemic) [Compound 543, 5-[[2-[(4S,4aR,8aS)-4-Methyl-3,4,4a,5,6,7,8,8a-octahydro-1H-isoquinolin-2-yl]-2-oxo-acetyl]amino]pyridine-3-carboxamide]	–	A (an IC50 ratio greater than or equal to 10 fold)	1000 to 10000
50 to 500	–	50 to 500	< 50	> 1000	< 100	CC(C)c1cc([C@@H]2CC[C@@H](C)CN2C(=O)C(=O)Nc2cncc(C(N)=O)c2)ccc1O (racemic) [Compound 552, 5-[[2-[(2S,5R)-2-(4-Hydroxy-3-isopropyl-phenyl)-5-methyl-1-piperidyl]-2-oxo-acetyl]amino]pyridine-3-carboxamide]	–	A (an IC50 ratio greater than or equal to 10 fold)	< 1000
50 to 500	–	50 to 500	< 50	> 1000	< 100	Cc1ccc([C@@H]2CC[C@@H](C)CN2C(=O)C(=O)Nc2cncc(C(N)=O)c2)cc1O (racemic) [Compound 554, 5-[[2-[(2S,5R)-2-(3-hydroxy-4-methyl-phenyl)-5-methyl-1-piperidyl]-2-oxo-acetyl]amino]pyridine-3-carboxamide]	–	A (an IC50 ratio greater than or equal to 10 fold)	1000 to 10000
50 to 500	–	50 to 500	< 50	100 to 1000	< 100	Cc1cc(NC(=O)C(=O)N2C[C@H](C)CC[C@H]2c2ccc(F)c(O)c2)cnc1N (racemic) [Compound 555, N-(6-amino-5-methyl-3-pyridyl)-2-[(2R,5S)-2-(4-fluoro-3-hydroxy-phenyl)-5-methyl-1-piperidyl]-2-oxo-acetamide]	–	A (an IC50 ratio greater than or equal to 10 fold)	< 1000
